Values quoted from earlier work in PMC11206399, “In Vitro/In Vivo Correlation of Two Extended-Release Cilostazol Formulations” (Pharmaceuticals, 2024).
Values after ≈ are worked out from the molar mass of the structure shown.

Assays:
[1] = set-up: method as in PMID 4074422
[2] = test system: Caco-2 cell monolayer; set-up: method as in PMID 14603510; conditions: Caco-2 cell monolayer model
[3] = set-up: method as in PMID 10702883; conditions: humans, oral 100 mg Cilostazol tablet
[4] = test system: platelet aggregation; set-up: method as in doi:10.1111/j.1527-3466.1993.tb00200.x

For O=C1CCc2cc(OCCCCc3nnnn3C3CCCCC3)ccc2N1 [Cilostazol], the water solubility [1] is given as 3.34 µg/mL (≈ 9.04 µM), the permeability coefficient [2] is given as “above 1 × 10^−6 cm/s” and the “increase of AUC of Cilostazol with high-fat breakfast compared with the fasted condition” value [3] is given as 25%. The “increase of Cmax of Cilostazol with high-fat breakfast compared with the fasted condition” value [3] was 90%.
In the case of O=c1ccc2cc(OCCCCc3nnnn3C3CCCCC3)ccc2[nH]1 [OPC-13015, 3,4-dehydrocilostazol], the “potency of inhibiting platelet aggregation compared with cilostazol” value [4] is listed as 3 fold.
For O=C1CCc2cc(OCCCCc3nnnn3[C@H]3CC[C@H](O)CC3)ccc2N1 [OPC-13213, 4′-trans-hydroxy-cilostazol], the “fold less potent than Cilostazol (inhibiting platelet aggregation)” value [4] is given as 3 fold.
